Experimental data: publication PMC9248268 (Biochemical pharmacology, 2021)

Columns and labels:
[1] = target: T1, PTPRJ phosphatase (Homo sapiens, UniProt Q12913); assay: inhibition of pNPP hydrolysis by recombinant PTPRJ phosphatase; format: biochemical
T1 sequence (Q12913 997-1337 limits assumed): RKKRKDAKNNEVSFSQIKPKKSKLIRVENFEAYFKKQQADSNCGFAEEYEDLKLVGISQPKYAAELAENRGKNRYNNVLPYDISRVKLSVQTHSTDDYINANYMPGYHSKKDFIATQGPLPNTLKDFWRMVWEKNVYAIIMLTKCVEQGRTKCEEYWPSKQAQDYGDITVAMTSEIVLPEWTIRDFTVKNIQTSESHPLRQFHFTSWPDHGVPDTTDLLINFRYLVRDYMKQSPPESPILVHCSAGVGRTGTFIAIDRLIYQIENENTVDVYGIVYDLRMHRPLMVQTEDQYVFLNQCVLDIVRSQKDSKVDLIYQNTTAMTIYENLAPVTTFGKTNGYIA

[2] = target: T2, recombinant human PTPRD phosphatase (Homo sapiens, UniProt P23468); details: cited from earlier work
T2 sequence (P23468 1357-1612 limits assumed): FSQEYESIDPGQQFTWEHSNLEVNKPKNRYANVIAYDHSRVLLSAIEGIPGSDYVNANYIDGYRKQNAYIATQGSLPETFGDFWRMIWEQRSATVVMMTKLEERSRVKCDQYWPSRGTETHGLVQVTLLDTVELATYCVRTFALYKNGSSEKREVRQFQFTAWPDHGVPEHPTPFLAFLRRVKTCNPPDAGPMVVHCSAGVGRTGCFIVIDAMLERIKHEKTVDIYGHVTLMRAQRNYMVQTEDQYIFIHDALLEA

[3] = target: T3, PTPRS phosphatase (Homo sapiens, UniProt Q13332); details: cited from earlier work
T3 sequence (Q13332 1393-1648 limits assumed): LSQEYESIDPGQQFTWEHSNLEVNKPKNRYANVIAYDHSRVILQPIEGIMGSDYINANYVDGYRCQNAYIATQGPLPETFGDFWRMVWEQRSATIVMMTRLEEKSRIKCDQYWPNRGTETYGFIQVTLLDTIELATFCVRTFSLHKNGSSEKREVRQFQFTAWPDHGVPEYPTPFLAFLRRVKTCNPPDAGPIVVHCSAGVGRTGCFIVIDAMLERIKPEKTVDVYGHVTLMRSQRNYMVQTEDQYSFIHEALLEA

[4] = tested on: PTPRF phosphatase; details: cited from earlier work
[5] = acute ascending doses or 2-week repeated doses up to 20 mg/kg; cited from earlier work
[6] = target: T2, recombinant human PTPRD phosphatase; assay: inhibition of pNPP hydrolysis by recombinant PTPRD phosphatase
[7] = target: T4, PTPN1 (PTP1B) phosphatase (Homo sapiens, UniProt P18031); assay: inhibition of pNPP hydrolysis by recombinant PTPN1; format: biochemical
T4 sequence (P18031 1-435): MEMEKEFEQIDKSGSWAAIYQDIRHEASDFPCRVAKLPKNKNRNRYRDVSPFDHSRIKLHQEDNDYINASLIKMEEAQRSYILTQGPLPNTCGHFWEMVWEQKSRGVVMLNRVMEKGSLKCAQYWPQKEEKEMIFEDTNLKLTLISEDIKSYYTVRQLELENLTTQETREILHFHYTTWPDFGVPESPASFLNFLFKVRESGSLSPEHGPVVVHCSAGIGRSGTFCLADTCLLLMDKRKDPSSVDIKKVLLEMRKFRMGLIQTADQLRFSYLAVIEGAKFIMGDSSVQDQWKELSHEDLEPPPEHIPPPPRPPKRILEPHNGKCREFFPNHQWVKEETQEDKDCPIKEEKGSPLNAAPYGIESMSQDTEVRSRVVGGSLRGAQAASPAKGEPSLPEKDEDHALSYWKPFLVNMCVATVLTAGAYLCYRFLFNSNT

[8] = target: T3, PTPRS phosphatase; assay: inhibition of pNPP hydrolysis by recombinant PTPRS phosphatase; format: biochemical; details: relative to 7-BIA
[9] = tested on: PTPRF phosphatase; assay: inhibition of pNPP hydrolysis by recombinant PTPRF phosphatase; format: biochemical; details: relative to 7-BIA
[10] = tested on: other protein tyrosine phosphatases screened; assay: screen at other protein tyrosine phosphatases; format: biochemical
[11] = tested on: sites of action (and side effects) of most marketed drugs; assay: EUROFINS assays for sites of action of marketed drugs; details: read-out: EC50 at EUROFINS sites of action of marketed drugs; any of these sites
[12] = absorption study, plasma levels in rats; format: in vivo; details: male, Sprague Dawley, rat, 10 mg/kg
[13] = oral tolerability study in mice; set-up: species or system wildtype C57BL/6J or PTPRD knockout mice; details: mouse, in vivo

Compound: CCCCOc1cc2c(c(C=O)c1OC)CC(O)OC2=O (centres unmarked) [compound 1, 7-butoxy illudalic acid analog]
- potency at PTPRJ (in words) [1]: moderate potencies
- activity at PTPRD phosphatase (in words) [2]: active
- potency of inhibition of PTPRD phosphatase dephosphorylation of p-NPP (in words) [2]: good potency
- activity at PTPRS phosphatase (in words) [3]: active
- activity at PTPRF phosphatase (in words) [4]: active
- toxicities in mice (in words) [5]: no apparent toxicities

Compound: CCCCOc1cc2c(=O)occc2c(C=O)c1OC [compound 22]
- activity at PTPRD (in words) [6]: activity was lost

Compound: CCCCOc1cc2c(c(C=O)c1OCC)CC(O)OC2=O (centres unmarked) [compound 23]
- activity at PTPRD (in words) [6]: activity was lost

Compound: CCCCOc1cc2c(c(C=O)c1OCCCC)CC(O)OC2=O (centres unmarked) [compound 24]
- activity at PTPRD (in words) [6]: activity was lost

Compound: COc1cccc(COc2cc3c(c(C=O)c2OC)CC(O)OC3=O)c1 (centres unmarked) [compound 30, 3-Hydroxy-6-methoxy-7-((3-methoxybenzyl)oxy)-1-oxoisochromane-5-carbaldehyde]
- activity at PTPRD (in words) [6]: no improvement in PTPRD activity

Compound: COc1ccccc1COc1cc2c(c(C=O)c1OC)CC(O)OC2=O (centres unmarked) [compound 31]
- activity at PTPRD (in words) [6]: no improvement in PTPRD activity

Compound: COc1c(OCc2ccc(Oc3ccccc3)cc2)cc2c(c1C=O)CC(O)OC2=O (centres unmarked) [compound 40, 3-Hydroxy-6-methoxy-1-oxo-7-((4-phenoxybenzyl)oxy)isochromane-5-carbaldehyde]
- potency in inhibiting PTPN1/PTP1B (in words) [7]: relatively high potency

Compound: COc1c(OCC2CCCC2)cc2c(c1C=O)CC(O)OC2=O (centres unmarked) [compound 58, 7-Cyclopentylmethoxy-3-hydroxy-6-methoxy-1-oxo-isochroman-5-carbaldehyde]
- greater selectivity for PTPRD vs PTPRS than 7-BIA [8]: 1.6 fold
- greater selectivity for PTPRD vs PTPRF than 7-BIA [9]: 1.4 fold
- greater selectivity for PTPRD vs PTPRJ than 7-BIA ([1]; relative to 7-BIA): 3.5 fold
- greater selectivity for PTPRD vs PTPN1/PTP1B than 7-BIA ([7]; relative to 7-BIA): 1.8 fold
- potency at other protein tyrosine phosphatases screened (in words) [10]: no substantial potency
- EC50 [11]: ≥ 100 µM
- half-life [12]: ~50 min
- concentration at 30 min ([12]; ip): 577 ng/g
- concentration at 120 min ([12]; ip): 10.3 ng/g
- concentration at 240 min ([12]; ip): 1.84 ng/g
- concentration at 5 min ([12]; iv): 24600 ng/g
- concentration at 30 min ([12]; iv): 92.6 ng/g
- concentration at 240 min ([12]; iv): 1.03 ng/g
- concentration at 30 min ([12]; po): 82.4 ng/g
- concentration at 120 min ([12]; po): 24.2 ng/g
- concentration at 240 min ([12]; po): 4.62 ng/g
- weight lost ([13]; 200 mg/kg): 1.3 g
- weight lost ([13]; 400 mg/kg): 3.4 g
- weight lost ([13]; 600 mg/kg): 1.1 g
- weight lost ([13]; 1000 mg/kg): 9 g
